Assay results published in paper PMC12399242 (Acta Pharmaceutica Sinica. B, 2025).
Read-outs that look alike come from different tables or passages of the source.

Key:
[1] = test system: MT-4 cells; details: cited from earlier work
[2] = test system: HIV-1 (IIIB); details: earlier compounds of Fig. 1 / introduction, cited from earlier work; for EC50: WT HIV-1
[3] = human liver microsomes; cited from earlier work
[4] = test system: HIV-1 E138K; assay: Antiviral activity against HIV-1 mutant E138K in MT-4 cells; type: cell-based
[5] = test system: HIV-1 L100I; assay: Antiviral activity against HIV-1 mutant L100I in MT-4 cells; type: cell-based
[6] = test system: HIV-1 K103N + Y181C (RES056); assay: Antiviral activity against HIV-1 double mutant K103N + Y181C (RES056) in MT-4 cells; type: cell-based
[7] = test system: HIV-1 Y181C; assay: Antiviral activity against HIV-1 mutant Y181C in MT-4 cells; type: cell-based
[8] = test system: HIV-1 F227L + V106A; assay: microbe, parasite or virus in culture; type: cell-based
[9] = test system: HIV-1 Y188L; assay: Antiviral activity against HIV-1 mutant Y188L in MT-4 cells; type: cell-based
[10] = test system: HIV-1 K103N; assay: Antiviral activity against HIV-1 mutant K103N in MT-4 cells; type: cell-based
[11] = biological target: WT HIV-1 RT (Human immunodeficiency virus type 1 group M subtype B, UniProt P03366); assay: Inhibition of WT HIV-1 RT polymerase activity
Experimental: The anti-HIV-1 activity of A1–A24 and B1–B22 at the cellular or enzyme level were evaluated following our previously reported method[15].

[12] = test system: HIV-1 (IIIB); assay: microbe, parasite or virus in culture; type: cell-based; details: for EC50: mean ± SD, n ≥ 3; for SI (IIIB): selectivity index, ratio CC50/EC50
Excerpt: (§1) Inspired by our previous research on heteroaromatic-biphenyl-DAPYs[15], the 4-cyanophenyl group on the biphenyl moiety was replaced with a privileged 4-pyridyl group for further evaluation.

[13] = test system: MT-4 cells; assay: in vitro
Excerpt: as §1

[14] = in vitro; details: human, CC50
Excerpt: as §1

[15] = Human immunodeficiency virus 1, MT4, read-out: EC50 E138K
[16] = Human immunodeficiency virus 1, MT4, read-out: EC50 L100I
[17] = Human immunodeficiency virus 1, MT4, read-out: EC50 K103N + Y181C
[18] = Human immunodeficiency virus 1, MT4, read-out: EC50 Y181C
[19] = Human immunodeficiency virus 1, MT4, read-out: EC50 F227L + V106A
[20] = Human immunodeficiency virus 1, MT4, read-out: EC50 Y188L
[21] = Human immunodeficiency virus 1, MT4, read-out: EC50 K103N
[22] = WT HIV-1, protection of MT-4 cells against HIV-induced cytopathogenicity
[23] = Human immunodeficiency virus 1, IIIB, MT4, WT HIV-1, protection of MT-4 cells against HIV-induced cytopathogenicity

| Compound | EC50 [4, 15] [nM] | EC50 [5, 16] [nM] | EC50 [6, 17] [nM] | EC50 [7, 18] [nM] | EC50 [8, 19] [nM] | EC50 [9, 20] [nM] | EC50 [10, 21] [nM] | IC50 [11] [nM] | EC50 [12, 23] [nM] | SI (IIIB) [12] | CC50 [14] [nM] | also measured |
| --- | --- | --- | --- | --- | --- | --- | --- | --- | --- | --- | --- | --- |
| Cc1cc(/C=C/C#N)cc(C)c1Nc1ccnc(Nc2ccc(C#N)cc2)n1 [RPV, rilpivirine] | – | – | – | – | – | – | – | – | – | – | – | CC50 ([1]; introduction): ~5000 nM; EC50 [2]: 1 nM; CLint(liver) [3]: 97.6 mL/min/kg; CLint(mic) [3]: 108.4 µL/min/mg; t1/2 [3]: 12.8 min |
| Cc1cc(-c2ccc(C#N)cc2)ccc1Nc1nc(Nc2ccc(C#N)cc2)ncc1F [A9, 4′-((2-((4-Cyanophenyl)amino)-5-fluoropyrimidin-4-yl)amino)-3′-methyl-[1,1′-biphenyl]-4-carbonitrile] | 10 ± 1.9 | 17 ± 6.7 | 24900 | 9.3 ± 0.7 | 37700 | 1620 ± 382 | 7.1 ± 1.9 | 36 ± 4.8 | – | – | – | – |
| Cc1ccnc2c1NC(=O)c1cccnc1N2C1CC1 [NVP, reference compound] | – | – | – | – | – | – | – | – | – | – | – | EC50 ([4]; MT-4 cells, mean ± SD, n ≥ 3, read-out: EC50 E138K): 143 ± 38 nM; EC50 ([5]; MT-4 cells, mean ± SD, n ≥ 3, read-out: EC50 L100I): 1800 ± 1430 nM; EC50 ([6]; RES056, MT-4 cells, mean ± SD, n ≥ 3, read-out: EC50 K103N + Y181C): > 15000 nM; EC50 [12, 22]: 188 ± 68 nM; EC50 ([7]; MT-4 cells, mean ± SD, n ≥ 3, read-out: EC50 Y181C): 9010 ± 2630 nM; EC50 ([8]; MT-4 cells, mean ± SD, n ≥ 3, read-out: EC50 F227L + V106A): > 15000 nM; EC50 ([9]; MT-4 cells, mean ± SD, n ≥ 3, read-out: EC50 Y188L): > 15000 nM; CC50 ([13]; uninfected MT-4 cells, mean ± SD, n ≥ 3): > 15000 nM; EC50 ([10]; MT-4 cells, mean ± SD, n ≥ 3, read-out: EC50 K103N): 5860 ± 2780 nM |
| COc1cc(-c2ccc(C#N)cc2)ccc1Oc1nc(Nc2ccc(C#N)cc2)ncc1F [A4, 4′-((2-((4-Cyanophenyl)amino)-5-fluoropyrimidin-4-yl)oxy)-3′-methoxy-[1,1′-biphenyl]-4-carbonitrile] | 7.8 ± 2.3 | 41 ± 25 | > 45700 | 48 ± 14 | ≥ 1600 | 1370 ± 206 | 9.4 ± 2.7 | 46 ± 4.6 | ≤ 5.3 | >16,000 | > 45000 | EC50 [12, 22]: 3 ± 1.1 nM; CC50 ([13]; human): > 46000 nM |
| Cc1cc(-c2ccncc2)cc(C)c1Nc1nc(Nc2ccc(C#N)cc2)ncc1F [A24, 4-((4-((2,6-Dimethyl-4-(pyridin-4-yl)phenyl)amino)-5-fluoropyrimidin-2-yl)amino)benzonitrile] | 8.3 ± 5.4 | 4.1 ± 3.7 | 63 ± 12 | 9.3 ± 5.6 | 244 ± 146 | 90 ± 27 | 1.9 ± 0.5 | 39 ± 2.4 | – | – | – | – |
| Cc1cc(-c2ccc(C#N)cc2)cc(C)c1Nc1ccnc(Nc2ccc(C#N)cc2)n1 [compound 3] | – | – | – | – | – | – | – | – | – | – | – | EC50 [2]: 1 nM; SI [2]: 2,059 |
| N#Cc1ccc(Nc2ncc(Cl)c(Nc3c(F)cc(-c4ccncc4)cc3F)n2)cc1 [B21, 4-((5-Chloro-4-((2,6-difluoro-4-(pyridin-4-yl)phenyl)amino)pyrimidin-2-yl)amino)benzonitrile] | – | – | – | – | – | – | – | – | 2 ± 0.7 | 680 | 1300 ± 300 | – |
| COc1cc(-c2ccncc2)ccc1Oc1nc(Nc2ccc(C#N)cc2)ncc1F [A16, 4-((5-Fluoro-4-(2-methoxy-4-(pyridin-4-yl)phenoxy)pyrimidin-2-yl)amino)benzonitrile] | 13 ± 3.4 | 39 ± 9.7 | > 48400 | 104 ± 17 | 1230 ± 556 | 1520 ± 556 | 12 ± 3.9 | 34 ± 2.4 | ≤ 5.3 | >15,094 | > 45000 | EC50 [12, 22]: 3.1 ± 2.2 nM; CC50 ([13]; human): > 48000 nM |
| Cc1cc(-c2ccncc2)ccc1Oc1nc(Nc2ccc(C#N)cc2)ncc1Cl [B14, 4-((5-Chloro-4-(2-methyl-4-(pyridin-4-yl)phenoxy)pyrimidin-2-yl)amino)benzonitrile] | – | – | – | – | – | – | – | – | 48 ± 22 | >1005 | > 48000 | – |
| CN(c1ccnc(Nc2ccc(C#N)cc2)n1)c1c(F)cc(-c2ccc(C#N)cc2)cc1F [compound 5] | – | – | – | – | – | – | – | – | – | – | – | CC50 ([1]; earlier compounds of Fig. 1 / introduction): 148000 nM; EC50 [2]: 6.2 nM; SI [2]: 24,067 |
| N#Cc1ccc(Nc2ncc(Cl)c(Oc3ccc(-c4ccc(C#N)cc4)cc3F)n2)cc1 [B1, 4′-((5-Chloro-2-((4-cyanophenyl)amino)pyrimidin-4-yl)oxy)-3′-fluoro-[1,1′-biphenyl]-4-carbonitrile] | – | – | – | – | – | – | – | – | 8.4 ± 3.4 | 4572 | 39000 ± 12000 | – |
